ChEMBL document CHEMBL1145728, “Structure--activity relationships of the peptide deformylase inhibitor BB-3497: modification of the P2' and P3' side chains” (Bioorg Med Chem Lett, 2003)
Converted amounts (≈) assume the structure as drawn.

Tests used:
Escherichia coli = assay: Antibacterial activity against Escherichia coli.; assay type: functional
Staphylococcus capitis = assay: Antibacterial activity against Staphylococcus capitis.; assay type: functional
Peptide deformylase = target: T1, Peptide deformylase (Escherichia coli, UniProt Q9JN24); assay: Inhibition concentration against Escherichia coli peptide deformylase.
T1 sequence (Q9JN24 whole entry): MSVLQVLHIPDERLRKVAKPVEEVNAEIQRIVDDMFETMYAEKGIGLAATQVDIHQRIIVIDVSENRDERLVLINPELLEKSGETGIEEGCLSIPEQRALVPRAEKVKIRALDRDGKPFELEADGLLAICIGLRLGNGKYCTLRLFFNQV

[1] = Escherichia coli, read-out: MIC
[2] = Staphylococcus capitis, read-out: MIC

| Structure (SMILES) | MIC (Escherichia coli; [1]) [µM] | MIC (Staphylococcus capitis; [2]) [µM] | IC50 (Peptide deformylase) [µM] | MIC (Escherichia coli) [µM] | MIC (Staphylococcus capitis) [µM] |
| --- | --- | --- | --- | --- | --- |
| CCCC[C@H](CN(O)C=O)C(=O)N1Cc2ccccc2C[C@H]1C(=O)N(C)C | > 200 | > 200 | – | – | – |
| CCCC[C@H](CN(O)C=O)C(=O)N[C@@H](CO)C(=O)N(C)C | 100 (≈ 30.3 µg/mL) | 50 (≈ 15.2 µg/mL) | – | – | – |
| CCCC[C@H](CN(O)C=O)C(=O)N[C@H](C(=O)O)C(C)(C)C | > 200 | > 200 | 0.08 | – | – |
| CCCC[C@H](CN(O)C=O)C(=O)N[C@@H](Cc1ccc(O)cc1)C(=O)N(C)C | > 200 | > 200 | 0.3 | – | – |
| CCCC[C@H](CN(O)C=O)C(=O)N[C@@H](C)C(=O)N(C)C | 25 (≈ 7.18 µg/mL) | 100 (≈ 28.7 µg/mL) | 0.04 | – | – |
| CCCC[C@H](CN(O)C=O)C(=O)N[C@@H](CSCc1ccccc1)C(=O)N(C)C | 200 (≈ 81.9 µg/mL) | 12.5 (≈ 5.12 µg/mL) | 0.07 | – | – |
| CCCC[C@H](CN(O)C=O)C(=O)N[C@H](C(=O)N1CCC(Cc2ccccc2)CC1)C(C)(C)C | 200 (≈ 91.9 µg/mL) | 6.25 (≈ 2.87 µg/mL) | 0.02 | – | – |
| CCCC[C@H](CN(O)C=O)C(=O)NCC(=O)N(C)C | 50 (≈ 13.7 µg/mL) | > 200 | – | – | – |
| CCCC[C@H](CN(O)C=O)C(=O)N[C@H](C(=O)N1CCC(C(=O)OCC)CC1)C(C)(C)C | > 200 | 25 (≈ 11 µg/mL) | 0.01 | – | – |
| CCCC[C@H](CN(O)C=O)C(=O)N[C@H](C(=O)N(C)C)C(C)(C)SC | 25 (≈ 9.04 µg/mL) | 25 (≈ 9.04 µg/mL) | – | – | – |
| CCCC[C@H](CN(O)C=O)C(=O)N[C@H](C(=O)N1CCCc2ccccc21)C(C)(C)C | 50 (≈ 20.9 µg/mL) | 50 (≈ 20.9 µg/mL) | 0.009 | – | – |
| CCCC[C@H](CN(O)C=O)C(=O)N[C@H](C(=O)N1CCCC1)C(C)(C)C | 25 (≈ 8.89 µg/mL) | 25 (≈ 8.89 µg/mL) | – | – | – |
| CCCC[C@H](CN(O)C=O)C(=O)N1CCC[C@H]1C(=O)N(C)C | > 200 | 50 (≈ 15.7 µg/mL) | 0.4 | – | – |
| CCCC[C@H](CN(O)C=O)C(=O)N[C@@H](CC(C)C)C(=O)N(C)C | 50 (≈ 16.5 µg/mL) | 50 (≈ 16.5 µg/mL) | 0.02 | – | – |
| CCCC[C@H](CN(O)C=O)C(=O)N[C@@H](CCCCN)C(=O)N(C)C | > 200 | > 200 | 0.2 | – | – |
| CCCC[C@H](CN(O)C=O)C(=O)N[C@@H](CCC(=O)OCc1ccccc1)C(=O)N(C)C | > 200 | 200 (≈ 87.1 µg/mL) | 0.02 | – | – |
| CCCC[C@H](CN(O)C=O)C(=O)N[C@H](C(C)=O)C(C)(C)C | 25 (≈ 7.51 µg/mL) | 100 (≈ 30 µg/mL) | 0.02 | – | – |
| CCCC[C@H](CN(O)C=O)C(=O)N[C@@H](CC1CCCCC1)C(=O)N(C)C | 100 (≈ 37 µg/mL) | 100 (≈ 37 µg/mL) | 0.03 | – | – |
| CCCC[C@H](CN(O)C=O)C(=O)N[C@H](C(=O)N(C)C)C(C)C | 25 (≈ 7.89 µg/mL) | 25 (≈ 7.89 µg/mL) | 0.02 | – | – |

| Structure (SMILES) | MIC (Escherichia coli; [1]) [µM] | MIC (Staphylococcus capitis; [2]) [µM] | IC50 (Peptide deformylase) [µM] | MIC (Escherichia coli) [µM] | MIC (Staphylococcus capitis) [µM] |
| --- | --- | --- | --- | --- | --- |
| CCCC[C@H](CN(O)C=O)C(=O)N[C@H](C(=O)N1CCCC2CCCCC21)C(C)(C)C (some centres undefined) | > 200 | 50 (≈ 21.2 µg/mL) | – | – | – |
| CCCC[C@H](CN(O)C=O)C(=O)N[C@H](C(=O)N(C)C)C(C)(C)O | 12.5 (≈ 4.14 µg/mL) | 25 (≈ 8.29 µg/mL) | – | – | – |
| CCCC[C@H](CN(O)C=O)C(=O)N[C@H](C(=O)OC)C(C)(C)C | 50 (≈ 15.8 µg/mL) | 200 (≈ 63.3 µg/mL) | 0.03 | – | – |
| CCCC[C@H](CN(O)C=O)C(=O)N[C@H](C(=O)N1CCN(C)CC1)C(C)(C)C | 25 (≈ 9.61 µg/mL) | 50 (≈ 19.2 µg/mL) | 0.05 | – | – |
| CCCC[C@H](CN(O)C=O)C(=O)N[C@H](C(=O)N(C)C)C(C)CC (some centres undefined) | 25 (≈ 8.24 µg/mL) | 12.5 (≈ 4.12 µg/mL) | 0.02 | – | – |
| CCCC[C@H](CN(O)C=O)C(=O)N[C@H](C(=O)N1CCC(C)CC1)C(C)(C)C | 100 (≈ 38.4 µg/mL) | 50 (≈ 19.2 µg/mL) | 0.01 | – | – |
| CCCC[C@H](CN(O)C=O)C(=O)N[C@H](C(=O)N1CCOCC1)C(C)(C)C | 25 (≈ 9.29 µg/mL) | 25 (≈ 9.29 µg/mL) | 0.02 | – | – |
| CCCC[C@H](CN(O)C=O)C(=O)N[C@@H](CCCCN(C)C)C(=O)N(C)C | > 200 | > 200 | 0.3 | – | – |
| CCCC[C@H](CN(O)C=O)C(=O)N[C@@H](CCCNC(=N)N)C(=O)N(C)C | > 200 | 50 (≈ 18.6 µg/mL) | 0.02 | – | – |
| CCCC[C@H](CN(O)C=O)C(=O)N[C@@H](Cc1ccccc1)C(=O)N(C)C | 100 (≈ 36.3 µg/mL) | 50 (≈ 18.2 µg/mL) | – | – | – |
| CCCC[C@H](CN(O)C=O)C(=O)N[C@H](C(=O)N(C)C)C(C)(C)OC | 25 (≈ 8.64 µg/mL) | 100 (≈ 34.5 µg/mL) | – | – | – |
| CCCC[C@H](CN(O)C=O)C(=O)N[C@H](C(=O)N(CCc1ccccc1)Cc1ccccc1)C(C)(C)C | > 200 | 100 (≈ 49.6 µg/mL) | 0.09 | – | – |
| CCCC[C@H](CN(O)C=O)C(=O)N[C@H](C(=O)N(C)C1CCCCC1)C(C)(C)C | > 200 | 100 (≈ 39.8 µg/mL) | – | – | – |
| CCCC[C@H](CN(O)C=O)C(=O)N[C@H](C(=O)N1CCC(C(C)=O)CC1)C(C)(C)C | 100 (≈ 41.2 µg/mL) | 25 (≈ 10.3 µg/mL) | 0.01 | – | – |
| CCCC[C@H](CN(O)C=O)C(=O)N[C@@H](Cc1ccc(Cl)cc1)C(=O)N(C)C | > 200 | 100 (≈ 39.8 µg/mL) | 0.05 | – | – |
| CCCC[C@H](CN(O)C=O)C(=O)N[C@@H](CC(=O)OCc1ccccc1)C(=O)N(C)C | > 200 | 25 (≈ 10.5 µg/mL) | 0.1 | – | – |
| CCCC[C@H](CN(O)C=O)C(=O)N[C@H](C(=O)N(C)C)C(C)(C)C (stereo in doubt; form 1) | – | – | 0.007 | – | – |
| CCCC[C@H](CN(O)C=O)C(=O)N[C@H](C(=O)N(C)C)C(C)(C)C (stereo in doubt; form 2) | – | – | 0.04 | 100 (≈ 32.9 µg/mL) | >200 |
